Measurements taken from the NIST ThermoML archive (doi:10.1016/j.jct.2011.08.016).
± gives the expanded uncertainty stated by the source.

Experiment: xn = mol fraction of the nth substance listed
Conditions: Liquid, Vibrating tube method

CCCCCCCCCC [decane] + CCCCCCC
mass density (363.02 K, 16000 kPa, x2 = 0.777): 658.24 ± 0.53 kg/m3 | mass density (363.02 K, 17000 kPa, x2 = 0.5219): 673.01 ± 0.53 kg/m3 | mass density (363.02 K, 17000 kPa, x2 = 0.777): 659.41 ± 0.54 kg/m3 | mass density (363.02 K, 18000 kPa, x2 = 0.5219): 674.09 ± 0.53 kg/m3 | mass density (363.02 K, 18000 kPa, x2 = 0.777): 660.5 ± 0.55 kg/m3 | mass density (363.02 K, 19000 kPa, x2 = 0.5219): 675.09 ± 0.54 kg/m3 | mass density (363.02 K, 19000 kPa, x2 = 0.777): 661.57 ± 0.56 kg/m3 | mass density (363.02 K, 20000 kPa, x2 = 0.5219): 676.07 ± 0.55 kg/m3 | mass density (363.02 K, 20000 kPa, x2 = 0.777): 662.62 ± 0.57 kg/m3 | mass density (363.02 K, 21000 kPa, x2 = 0.5219): 677.05 ± 0.56 kg/m3 | mass density (363.02 K, 21000 kPa, x2 = 0.777): 663.64 ± 0.57 kg/m3 | mass density (363.02 K, 22000 kPa, x2 = 0.5219): 677.98 ± 0.56 kg/m3 | mass density (363.02 K, 22000 kPa, x2 = 0.777): 664.64 ± 0.58 kg/m3 | mass density (363.02 K, 23000 kPa, x2 = 0.5219): 678.94 ± 0.57 kg/m3 | mass density (363.02 K, 23000 kPa, x2 = 0.777): 665.63 ± 0.59 kg/m3 | mass density (363.02 K, 24000 kPa, x2 = 0.5219): 679.87 ± 0.58 kg/m3 | mass density (363.02 K, 24000 kPa, x2 = 0.777): 666.6 ± 0.6 kg/m3 | mass density (363.02 K, 25000 kPa, x2 = 0.5219): 680.76 ± 0.59 kg/m3 | mass density (363.02 K, 25000 kPa, x2 = 0.777): 667.53 ± 0.61 kg/m3 | mass density (363.03 K, 1000 kPa, x2 = 0.0531): 674.85 ± 0.42 kg/m3 | mass density (363.03 K, 1000 kPa, x2 = 0.952): 627.08 ± 0.44 kg/m3 | mass density (363.03 K, 2000 kPa, x2 = 0.0531): 676.04 ± 0.42 kg/m3 | mass density (363.03 K, 2000 kPa, x2 = 0.952): 628.62 ± 0.44 kg/m3 | mass density (363.03 K, 3000 kPa, x2 = 0.0531): 677.23 ± 0.43 kg/m3 | mass density (363.03 K, 3000 kPa, x2 = 0.952): 630.14 ± 0.45 kg/m3 | mass density (363.03 K, 4000 kPa, x2 = 0.0531): 678.38 ± 0.43 kg/m3 | mass density (363.03 K, 4000 kPa, x2 = 0.952): 631.64 ± 0.46 kg/m3 | mass density (363.03 K, 5000 kPa, x2 = 0.0531): 679.52 ± 0.44 kg/m3 | mass density (363.03 K, 5000 kPa, x2 = 0.952): 633.12 ± 0.46 kg/m3 | mass density (363.03 K, 6000 kPa, x2 = 0.0531): 680.65 ± 0.44 kg/m3 | mass density (363.03 K, 6000 kPa, x2 = 0.952): 634.56 ± 0.47 kg/m3 | mass density (363.03 K, 7000 kPa, x2 = 0.0531): 681.75 ± 0.45 kg/m3 | mass density (363.03 K, 7000 kPa, x2 = 0.952): 635.98 ± 0.48 kg/m3 | mass density (363.03 K, 8000 kPa, x2 = 0.0531): 682.84 ± 0.45 kg/m3 | mass density (363.03 K, 8000 kPa, x2 = 0.952): 637.36 ± 0.48 kg/m3 | mass density (363.03 K, 9000 kPa, x2 = 0.0531): 683.92 ± 0.46 kg/m3 | mass density (363.03 K, 9000 kPa, x2 = 0.952): 638.71 ± 0.49 kg/m3 | mass density (363.03 K, 10000 kPa, x2 = 0.0531): 684.98 ± 0.46 kg/m3 | mass density (363.03 K, 10000 kPa, x2 = 0.952): 640.03 ± 0.5 kg/m3 | mass density (363.03 K, 11000 kPa, x2 = 0.0531): 686.02 ± 0.47 kg/m3 | mass density (363.03 K, 11000 kPa, x2 = 0.952): 641.33 ± 0.51 kg/m3 | mass density (363.03 K, 12000 kPa, x2 = 0.0531): 687.05 ± 0.47 kg/m3 | mass density (363.03 K, 12000 kPa, x2 = 0.952): 642.61 ± 0.51 kg/m3 | mass density (363.03 K, 13000 kPa, x2 = 0.0531): 688.07 ± 0.48 kg/m3 | mass density (363.03 K, 13000 kPa, x2 = 0.952): 643.86 ± 0.52 kg/m3 | mass density (363.03 K, 14000 kPa, x2 = 0.0531): 689.07 ± 0.49 kg/m3 | mass density (363.03 K, 14000 kPa, x2 = 0.952): 645.09 ± 0.53 kg/m3 | mass density (363.03 K, 15000 kPa, x2 = 0.0531): 690.05 ± 0.49 kg/m3 | mass density (363.03 K, 15000 kPa, x2 = 0.952): 646.3 ± 0.54 kg/m3 | mass density (363.03 K, 16000 kPa, x2 = 0.0531): 691.03 ± 0.5 kg/m3 | mass density (363.03 K, 16000 kPa, x2 = 0.952): 647.49 ± 0.55 kg/m3 | mass density (363.03 K, 17000 kPa, x2 = 0.0531): 691.98 ± 0.51 kg/m3 | mass density (363.03 K, 17000 kPa, x2 = 0.952): 648.66 ± 0.55 kg/m3 | mass density (363.03 K, 18000 kPa, x2 = 0.0531): 692.93 ± 0.51 kg/m3 | mass density (363.03 K, 18000 kPa, x2 = 0.952): 649.8 ± 0.56 kg/m3 | mass density (363.03 K, 19000 kPa, x2 = 0.0531): 693.87 ± 0.52 kg/m3 | mass density (363.03 K, 19000 kPa, x2 = 0.952): 650.92 ± 0.57 kg/m3 | mass density (363.03 K, 20000 kPa, x2 = 0.0531): 694.79 ± 0.53 kg/m3 | mass density (363.03 K, 20000 kPa, x2 = 0.952): 652.02 ± 0.58 kg/m3 | mass density (363.03 K, 21000 kPa, x2 = 0.0531): 695.7 ± 0.53 kg/m3 | mass density (363.03 K, 21000 kPa, x2 = 0.952): 653.1 ± 0.59 kg/m3 | mass density (363.03 K, 22000 kPa, x2 = 0.0531): 696.6 ± 0.54 kg/m3 | mass density (363.03 K, 22000 kPa, x2 = 0.952): 654.16 ± 0.6 kg/m3 | mass density (363.03 K, 23000 kPa, x2 = 0.0531): 697.47 ± 0.55 kg/m3 | mass density (363.03 K, 23000 kPa, x2 = 0.952): 655.2 ± 0.6 kg/m3 | mass density (363.03 K, 24000 kPa, x2 = 0.0531): 698.37 ± 0.55 kg/m3 | mass density (363.03 K, 24000 kPa, x2 = 0.952): 656.21 ± 0.61 kg/m3 | mass density (363.03 K, 25000 kPa, x2 = 0.0531): 699.21 ± 0.56 kg/m3 | mass density (363.03 K, 25000 kPa, x2 = 0.952): 657.21 ± 0.62 kg/m3 | mass density (363.06 K, 1000 kPa, x2 = 0.2594): 666.7 ± 0.42 kg/m3 | mass density (363.06 K, 2000 kPa, x2 = 0.2594): 667.89 ± 0.43 kg/m3 | mass density (363.06 K, 3000 kPa, x2 = 0.2594): 669.1 ± 0.43 kg/m3 | mass density (363.06 K, 4000 kPa, x2 = 0.2594): 670.27 ± 0.44 kg/m3 | mass density (363.06 K, 5000 kPa, x2 = 0.2594): 671.44 ± 0.44 kg/m3 | mass density (363.06 K, 6000 kPa, x2 = 0.2594): 672.61 ± 0.45 kg/m3 | mass density (363.06 K, 7000 kPa, x2 = 0.2594): 673.77 ± 0.45 kg/m3 | mass density (363.06 K, 8000 kPa, x2 = 0.2594): 674.91 ± 0.46 kg/m3 | mass density (363.06 K, 9000 kPa, x2 = 0.2594): 676.05 ± 0.46 kg/m3 | mass density (363.06 K, 10000 kPa, x2 = 0.2594): 677.17 ± 0.47 kg/m3 | mass density (363.06 K, 11000 kPa, x2 = 0.2594): 678.26 ± 0.48 kg/m3 | mass density (363.06 K, 12000 kPa, x2 = 0.2594): 679.34 ± 0.48 kg/m3 | mass density (363.06 K, 13000 kPa, x2 = 0.2594): 680.41 ± 0.49 kg/m3 | mass density (363.06 K, 14000 kPa, x2 = 0.2594): 681.46 ± 0.49 kg/m3 | mass density (363.06 K, 15000 kPa, x2 = 0.2594): 682.5 ± 0.5 kg/m3 | mass density (363.06 K, 16000 kPa, x2 = 0.2594): 683.52 ± 0.51 kg/m3 | mass density (363.06 K, 17000 kPa, x2 = 0.2594): 684.53 ± 0.51 kg/m3 | mass density (363.06 K, 18000 kPa, x2 = 0.2594): 685.52 ± 0.52 kg/m3 | mass density (363.06 K, 19000 kPa, x2 = 0.2594): 686.5 ± 0.53 kg/m3 | mass density (363.06 K, 20000 kPa, x2 = 0.2594): 687.43 ± 0.54 kg/m3 | mass density (363.06 K, 21000 kPa, x2 = 0.2594): 688.35 ± 0.54 kg/m3 | mass density (363.06 K, 22000 kPa, x2 = 0.2594): 689.23 ± 0.55 kg/m3 | mass density (363.06 K, 23000 kPa, x2 = 0.2594): 690.14 ± 0.56 kg/m3 | mass density (363.06 K, 24000 kPa, x2 = 0.2594): 691.03 ± 0.56 kg/m3 | mass density (363.06 K, 25000 kPa, x2 = 0.2594): 691.89 ± 0.57 kg/m3
